Laboratory results reported in a melting point compilation (Tetko et al.; mined from patent text by program, amines drawn as free bases though some values may be those of a salt).

Compared with `O=C1c2ccccc2C(=O)N1CCCN1C(=O)C2(COc3cc4c(cc32)CCO4)c2ccccc21` (stereo not drawn), `O=C1c2ccccc2C(=O)N1c1ccccc1CSc1nccn1Cc1ccccn1` is lower in melting point: 214 to 217 °C for the first, 80 to 83 °C for the second.

First: COC(=O)c1sccc1NC(=O)OC(C)(C)C
Second: CCc1ccc(-c2ccc(NC(=O)OC(C)(C)C)c([N+](=O)[O-])c2)cc1
The melting point of the first is lower: 88 to 89 °C for the first, 94 to 99 °C for the second.

First: CCOC(=O)C(=CNC1CC1)C(=O)c1cc(F)c(F)c(OC)c1F
Second: O=C(O)c1ccncc1C(=O)c1cc(F)ccc1F
The melting point of the first is lower: 56 to 58 °C for the first, 214 to 216 °C for the second.

First: NC(=O)c1sc2nccc(N3CCCN(c4ccc(Cl)nn4)CC3)c2c1N
Second: O=C(c1ccc([N+](=O)[O-])o1)N1CCN(CC(O)COc2cccc3[nH]c4ccccc4c23)CC1 (stereo not drawn)
The melting point of the first is higher: 232 to 234 °C for the first, 178 to 181 °C for the second.

`CN1C(=O)CC[C@]2(C)c3ccc(C(=O)Oc4ccccc4)cc3CC[C@@H]12` and `O=C(NCCN1CCC2(CC1)C(=O)NCN2c1ccccc1)c1ccco1` cannot be ordered by melting point: 194 to 196 °C for the first, 196 °C for the second.

First: Cn1cnc(COc2nn3c(-c4ccccc4)nnc3cc2-c2ccccc2)c1
Second: Cc1ccccc1Cc1ccc(-c2cnn3c(O)ncnc23)cc1
The melting point of the first is lower: 199 to 202 °C for the first, 274 to 279 °C for the second.

Compared with `CC(C)n1cc(-c2nc(C#N)c(N)nc2-c2ccc(F)cc2)ccc1=O`, `Cc1[nH]c(Br)c(C)c1-c1ccnc(Nc2ccc(F)cc2)n1` is lower in melting point: 207 °C for the first, 181 to 183 °C for the second.

Compared with `CC(C)(C)C(NC(=O)c1ccc(Cl)cc1)Nc1c(Nc2ccccn2)c(=O)c1=O` (stereo not drawn), `COC(=O)C(C)(C)Cc1ccc2oc(-c3ccc4ccc(Cl)cc4n3)cc2c1` is lower in melting point: 246 to 248 °C for the first, 137 to 138 °C for the second.

Compared with `O=c1ccn([C@@H]2C(F)=C(CCO)[C@@H](O)[C@H]2O)c(=O)[nH]1`, `CC(=O)OCC1OC(n2cc(C(Br)=CBr)c(=O)[nH]c2=O)CC1OC(C)=O` (stereo not drawn) is lower in melting point: 166 to 167 °C for the first, 79 to 81 °C for the second.

First: CCOP(=O)(CCc1ccnc(-c2nc(=O)c3ccccc3s2)c1)OCC
Second: COC(=O)c1ccc(-c2nc3c(OC(C)=O)cccc3s2)cc1
The melting point of the first is lower: 102 to 103 °C for the first, 144 to 146 °C for the second.

Compared with `CCCCOCCOc1ccc(-c2ccc3c(c2)C=C(C(=O)Nc2ccc(C(O)c4cc(C)ccn4)cc2)CCN3C(=O)C(F)(F)F)cc1` (stereo not drawn), `Fc1cccc(F)c1-c1cnc(-c2ccc(-c3ccc(OC(F)(F)F)cc3)cc2)nn1` is higher in melting point: 101 to 105 °C for the first, 199 to 202 °C for the second.

Compared with `O=C(O)CCCC#CCNS(=O)(=O)c1ccc(Cl)cc1`, `COc1ccc(S(=O)(=O)N(CCNC(C)=O)c2ccc(C)cc2Cc2c(F)cccc2F)cc1OC` is lower in melting point: 91 to 93 °C for the first, 79.7 °C for the second.

First: O=C(NCCN1CCNC1=O)Nc1ccccc1
Second: c1ccc(NC2CCc3cccnc3C2)cc1 (stereo not drawn)
The melting point of the first is higher: 162 to 164 °C for the first, 102 to 103 °C for the second.

First: COC(=O)c1ccc2c(c1)Oc1ccc(C(=O)OC)cc1C2(C)C
Second: C=C(C)COc1ccc(C(=O)C=Cc2ccc(OC)cc2OC)c(O)c1
The melting point of the first is higher: 145 to 147 °C for the first, 106 to 107 °C for the second.

First: Cn1nccc1-n1ccnc1S(N)(=O)=O
Second: CCOC(=O)c1cccc2c1C(=O)N(C)Cc1c(C(=O)OCC)ncn1-2
The melting point of the first is higher: 230 to 233 °C for the first, 136 to 140 °C for the second.

Compared with `Fc1ccc(-n2nc(-c3nc(-c4ccccc4)cs3)c3c2C2CCC3C2)c(F)c1` (stereo not drawn), `Cn1c2cc3ccccc3nc2c2c(Cl)cccc21` is higher in melting point: 128 to 130 °C for the first, 228 to 230 °C for the second.

First: Cc1ccc(C(C#N)C(=O)C(=O)C(C#N)c2ccc(C)cc2)cc1 (stereo not drawn)
Second: COc1ccc2c(c1)c(Cc1cc(=O)n(-c3ccc(C(F)(F)F)cc3)[nH]1)c(C)n2C(=O)c1ccc(Cl)cc1
The melting point of the first is higher: 246 to 250 °C for the first, 180 to 182 °C for the second.

First: Nc1nc(N)c2c(ccc3c2ccn3Cc2ccc(OC(F)(F)F)cc2)n1
Second: CN(CC(=O)O)C[C@@H]1CC(c2ccc(-c3ccc(N4C[C@H](Cn5ccnn5)OC4=O)cc3F)cn2)=NO1
The melting point of the first is lower: 205 to 208 °C for the first, 212 to 218 °C for the second.

Compared with `COc1cc(C)cc(OC)c1N(CC1CCCCC1)C(=O)CNC(=O)c1cc2ccccc2n1CCC(=O)O`, `CCCc1c(OCCCCCOc2ccc3cc(OCC(=O)O)ccc3c2CCC(=O)O)ccc2c1OCCC2=O` is higher in melting point: 110 °C for the first, 160 to 163 °C for the second.

First: COc1cc(Nc2c(C#N)cnc3c(/C=C/CCN4CCOCC4)cccc23)c(Cl)cc1Cl
Second: CCc1nn2c(-c3ccc(Cl)cc3Cl)nc(C)nc2c1N(CC)CC
The melting point of the first is higher: 176 to 179 °C for the first, 98 to 99 °C for the second.

Compared with `N#Cc1cc(F)c(N(CCO)CCO)c(F)c1`, `CCCCCCCN1C(=O)C2CC2(c2ccc(N)cc2)C1=O` (stereo not drawn) is higher in melting point: 63 to 65 °C for the first, 78 to 79 °C for the second.

First: COc1cccc2sc(NN)nc12
Second: COc1ccc2[nH]cc(CC(C)(C)N)c2c1
The melting point of the first is higher: 215 to 220 °C for the first, 114 to 116 °C for the second.

First: CN(C)C(=O)C1(N2C(=O)c3cccc(Cl)c3C2=O)CCCCC1
Second: Oc1nc2c([nH]1)CCCCC2
The melting point of the first is lower: 135 to 137 °C for the first, 272 °C for the second.

First: ClC(Cl)(Cl)c1cccc2nnsc12
Second: O=S(c1ccccc1)c1ncc(Cl)cn1 (stereo not drawn)
The melting point of the first is lower: 67 to 69 °C for the first, 115 °C for the second.
